Columns and labels:
Plasmopara viticola = Plasmopara viticola (downy mildew of grapevine), grapevine leaf disk assay, preventive; type: in vivo; details: foliar, 168 h, 200 ppm, grapevine leaf disks, assessed seven days after inoculation, read-out: control of fungal infection, Plasmopara viticola
Phytophthora infestans = experiment: whole plant or invertebrate; type: in vivo; details: in Solanum lycopersicum, foliar, 96 h, read-out: control of fungal infection, Phytophthora infestans
[1] = test system: Erysiphe graminis f.sp. tritici; experiment: Erysiphe graminis f.sp. tritici (wheat powdery mildew), wheat leaf segment assay, preventive; type: in vivo; details: Blumeria graminis, foliar, 96 h; 200 ppm; wheat leaf segments; assessed four days after inoculation; read-out: control of fungal infection, Etysiphe graminis f.sp. tritici
Pyricularia oryzae = experiment: whole plant or invertebrate; type: in vivo; details: foliar, 96 h, read-out: control of fungal infection, Pyricularia oryzae
[2] = test system: Puccinia recondita f.sp. tritici; experiment: Puccinia recondita f.sp. tritici (wheat brown rust), wheat leaf segment assay, preventive; type: in vivo; details: foliar, 216 h, 200 ppm, wheat leaf segments, assessed nine days after inoculation, read-out: control of fungal infection, Puccinia recondite f.sp. tritici
Septoria nodorum = Septoria nodorum (wheat glume blotch), wheat leaf segment assay, preventive; type: in vivo; details: Parastagonospora nodorum, foliar, 96 h; 200 ppm; wheat leaf segments; assessed four days after inoculation; read-out: control of fungal infection, Septoria nodorum
Septoria tritici = Septoria tritici (leaf blotch), liquid culture growth inhibition in nutrient broth; type: cell-based; details: Zymoseptoria tritici; 200 ppm; PDB broth, 24 C; inhibition of growth determined photometrically after 72 hrs; read-out: control of fungal infection, Septoria tritici
Pythium ultimum = Pythium ultimum (Damping off), liquid culture growth inhibition in potato dextrose broth; type: cell-based; details: Globisporangium ultimum; 20 ppm; potato dextrose broth, 24° C.; inhibition of growth determined photometrically after 48 hours; read-out: control of fungal infection, Pythium ultimum
Fusarium culmorum = Fusarium culmorum (root rot), liquid culture growth inhibition in nutrient broth; type: cell-based; details: PDB broth, 24 C, inhibition of growth determined photometrically after 48 hrs, read-out: control of fungal infection, Fusarium culmorum
Method in brief: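 Fusarium culmorum conidia from cryogenic storage were mixed into potato dextrose broth and added to compound pre-dispensed from DMSO (diluted in 0.025% Tween20). Incubated at 24 C in the dark; growth inhibition read photometrically after 48 hrs.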

C#Cc1cnc2ccc(OC(SC)C(=O)NC(C)(C)C=NOCC)cc2c1 (single isomer, unassigned) [Compound No. 119, N-(2-Ethoxyimino-1,1-dimethyl-ethyl)-2-(3-ethynyl-quinolin-6-yloxy)-2-methylsulfanyl-acetamide]
≥ 60%: pest or weed control at 200 ppm (Plasmopara viticola) | pest or weed control at 200 ppm (Phytophthora infestans) | pest or weed control at 200 ppm [1] | pest or weed control at 200 ppm (Pyricularia oryzae) | pest or weed control at 200 ppm [2] | pest or weed control at 200 ppm (Septoria nodorum) | inhibition of growth at 200 ppm (Septoria tritici) | inhibition of growth at 20 ppm (Pythium ultimum)

CSC(Oc1cc(C)c2ncc(Br)cc2c1)C(=O)NC(C)(C)C=NO (centres unmarked) [Compound No. 31, 2-(3-Bromo-8-methyl-quinolin-6-yloxy)-N-(2-hydroxyimino-1,1-dimethyl-ethyl)-2-methylsulfanyl-acetamide]
≥ 60%: pest or weed control at 200 ppm (Plasmopara viticola) | pest or weed control at 200 ppm (Phytophthora infestans) | pest or weed control at 200 ppm [1] | pest or weed control at 200 ppm (Pyricularia oryzae) | inhibition of growth at 200 ppm (Fusarium culmorum) | inhibition of growth at 20 ppm (Pythium ultimum)

C#Cc1cnc2c(Cl)cc(OC(SC)C(=O)NC(C)(C)C=NOCC=C)cc2c1 (centres unmarked) [Compound No. 117, N-(2-Allyloxyimino-1,1-dimethyl-ethyl)-2-(8-chloro-3-ethynyl-quinolin-6-yloxy)-2-methylsulfanyl-acetamide]
≥ 60%: pest or weed control at 200 ppm (Plasmopara viticola) | pest or weed control at 200 ppm (Phytophthora infestans) | pest or weed control at 200 ppm [1] | pest or weed control at 200 ppm (Pyricularia oryzae) | pest or weed control at 200 ppm [2] | pest or weed control at 200 ppm (Septoria nodorum) | inhibition of growth at 200 ppm (Septoria tritici) | inhibition of growth at 20 ppm (Pythium ultimum)

C#Cc1cnc2ccc(OC(SC)C(=O)NC(C)(C)C=NOCC)cc2c1 (centres unmarked) [Compound No. 118, N-(2-Ethoxyimino-1,1-dimethyl-ethyl)-2-(3-ethynyl-quinolin-6-yloxy)-2-methylsulfanyl-acetamide]
≥ 60%: pest or weed control at 200 ppm (Plasmopara viticola) | pest or weed control at 200 ppm (Phytophthora infestans) | pest or weed control at 200 ppm [1] | pest or weed control at 200 ppm (Pyricularia oryzae) | pest or weed control at 200 ppm [2] | pest or weed control at 200 ppm (Septoria nodorum) | inhibition of growth at 200 ppm (Septoria tritici) | inhibition of growth at 20 ppm (Pythium ultimum)

C#Cc1cnc2ccc(OC(SC)C(=O)NC(C)(C)C=NOCC=C)cc2c1 (centres unmarked) [Compound No. 120, N-(2-Allyloxyimino-1,1-dimethyl-ethyl)-2-(3-ethynyl-quinolin-6-yloxy)-2-methylsulfanyl-acetamide]
≥ 60%: pest or weed control at 200 ppm (Plasmopara viticola) | pest or weed control at 200 ppm (Phytophthora infestans) | pest or weed control at 200 ppm [1] | pest or weed control at 200 ppm (Pyricularia oryzae) | pest or weed control at 200 ppm [2] | pest or weed control at 200 ppm (Septoria nodorum) | inhibition of growth at 200 ppm (Septoria tritici) | inhibition of growth at 20 ppm (Pythium ultimum)
